Results: patent publication US9745325B2, “Fused heterocyclic compound” (Takeda Pharmaceutical Company Limited, priority 2014, dated 2017)
Counter-ions that a name gives are not always drawn.

Columns and labels:
CDC2L6/CycC (CDK19) = target: T1, CDC2L6/CycC (CDK19) (Homo sapiens, UniProt Q9BWU1); assay: CDK19 inhibitory activity (Kinase Tracer-236 / Eu-anti-GST fluorescence assay); type: binding; set-up: Percent inhibition of CDK19 activity (%): concentration or dose not given beside the values; conditions: for Percent inhibition of CDK19 activity (%): test compound concentration given as '1 1.1.1\4' [sic]
T1 construct: purchased Carna Biosciences Inc
Description: (§1) The compound of the present invention was evaluated for its CDK8 inhibitory activity and CDK19 inhibitory activity by the following method. […] The primary diluted solution was dispensed in the amount of 2 μL/well to a 384-well plate, and then, a mixed solution of Eu^3+ Cryptate conjugated mouse monoclonal antibody anti-glutathione S-transferase (Cisbio) diluted 267-fold with an assay buffer and 60 nM Kinase Tracer-236 (Life technologies) was added thereto at 2 μL/well. […] After the addition, the plate was left standing at room temperature for 1 hour, and then, the fluorescence intensity (excitation wavelength 320 nm, fluorescence wavelength 615 nm, 665 nm, delay time 50 μsec) was measured using ann EnVision plate reader (PerkinElmer). The percent inhibition of CDK8 or CDK19 activity by the test compound can be calculated according to the following formula, wherein the fluorescence intensity of a reaction solution in the absence of compound is defined as the control, and the fluorescence intensity of a reaction solution in the presence of 10 μM of control compound is defined as the blank.

[1] = tested on: human multiple myeloma RPMI8226 cells; assay: Inhibitory activity against human multiple myeloma RPMI8226 cell growth (CellTiter-Glo); type: cell-based; conditions: Homo sapiens, RPMI-8226, 192 h, 1 μM test compound, cultured for 8 days; read-out: Percent inhibition of RPMI8226 cell growth (%)
Description: The compound of the present invention was evaluated for its inhibitory activity against human multiple myeloma RPMI8226 cell growth by the following method.
A suspension of human multiple myeloma RPMI8226 cells (purchased from the Health Protection Agency) was inoculated at 40 μL (300 cells/well) to a 384-well plate and cultured at 37° C. for 1 day in a 5% CO2 incubator. After the culture, each test compound solution was added thereto at a test concentration of 1 μM using TECAN D300, and the cells were further cultured for 8 days. After the culture, CellTiter-Glo™ Luminescent Cell Viability Assay reagent (Promega) was added at 40 μL/well to a 384-well plate, and the amount of luminescence was measured using a luminometer. Inhibitory activity against human multiple myeloma RPMI8226 cell growth (percent inhibition (%)) of the test compound was calculated according to the following formula, which is based on the hypothesis that the amount of residual ATP reflects the number of cells. In this formula, 100% control represents the amount of luminescence from a well with only 0.1% DMSO added. Percent inhibition (%)=(1−(amount of luminescence of the test compound)÷(100% control))×100

CDK8/CycC = target: T2, CDK8/CycC (Homo sapiens, UniProt P49336); assay: CDK8 inhibitory activity (Kinase Tracer-236 / Eu-anti-GST fluorescence assay); type: binding; set-up: Percent inhibition of CDK8 activity (%): concentration or dose not given beside the values; conditions: for Percent inhibition of CDK8 activity (%): test compound concentration given as '1 1.1.1\4' [sic]
T2 construct: purchased Carna Biosciences
Description: as §1

T2 sequence (P49336 whole entry): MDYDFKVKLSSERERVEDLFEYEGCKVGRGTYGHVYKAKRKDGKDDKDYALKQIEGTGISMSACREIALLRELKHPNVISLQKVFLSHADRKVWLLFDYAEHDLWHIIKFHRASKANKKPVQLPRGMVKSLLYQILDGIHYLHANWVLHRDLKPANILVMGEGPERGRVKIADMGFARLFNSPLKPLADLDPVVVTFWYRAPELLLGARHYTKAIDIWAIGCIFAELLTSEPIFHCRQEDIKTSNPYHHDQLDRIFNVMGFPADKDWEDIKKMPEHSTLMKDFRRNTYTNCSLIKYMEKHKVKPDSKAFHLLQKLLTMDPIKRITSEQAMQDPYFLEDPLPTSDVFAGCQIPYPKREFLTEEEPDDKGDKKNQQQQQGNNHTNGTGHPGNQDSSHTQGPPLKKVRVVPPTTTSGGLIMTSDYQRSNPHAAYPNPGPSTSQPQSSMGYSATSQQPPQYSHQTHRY
T2 sequence (P24863 whole entry partner): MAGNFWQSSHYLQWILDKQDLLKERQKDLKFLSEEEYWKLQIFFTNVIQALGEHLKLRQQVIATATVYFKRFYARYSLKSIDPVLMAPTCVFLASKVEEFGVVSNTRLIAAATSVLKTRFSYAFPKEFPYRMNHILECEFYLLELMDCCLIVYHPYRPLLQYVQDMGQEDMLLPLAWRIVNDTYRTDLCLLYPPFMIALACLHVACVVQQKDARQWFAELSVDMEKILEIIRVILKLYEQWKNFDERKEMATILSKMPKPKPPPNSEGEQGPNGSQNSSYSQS
T1 sequence (Q9BWU1 whole entry): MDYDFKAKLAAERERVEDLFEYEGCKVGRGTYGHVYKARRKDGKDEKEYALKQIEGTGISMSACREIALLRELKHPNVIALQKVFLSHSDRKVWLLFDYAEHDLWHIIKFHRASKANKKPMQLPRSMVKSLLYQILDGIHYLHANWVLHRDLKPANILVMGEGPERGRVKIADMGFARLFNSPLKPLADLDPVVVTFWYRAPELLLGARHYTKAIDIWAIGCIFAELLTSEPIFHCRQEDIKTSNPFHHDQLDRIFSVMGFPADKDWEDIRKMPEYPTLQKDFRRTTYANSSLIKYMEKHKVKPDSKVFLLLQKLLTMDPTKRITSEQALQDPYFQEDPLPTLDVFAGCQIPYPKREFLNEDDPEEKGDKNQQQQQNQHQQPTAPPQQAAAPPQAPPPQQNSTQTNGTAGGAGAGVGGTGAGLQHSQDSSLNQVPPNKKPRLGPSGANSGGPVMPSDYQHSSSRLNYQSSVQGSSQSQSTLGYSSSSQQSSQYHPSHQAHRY
T1 sequence (P24863 whole entry partner): as the sequence (P24863 whole entry partner) above

| Percent inhibition of CDK19 activity (%) (CDC2L6/CycC (CDK19)) | Percent inhibition of CDK8 activity (%) (CDK8/CycC) | IC50 (CDC2L6/CycC (CDK19); control compound, for reference, read-out: CDK19 inhibition IC50) [nM] | IC50 (CDK8/CycC; control compound, for reference, read-out: CDK8 inhibition IC50) [nM] | Compound | inhibition at 1 µM [1] [%] |
| --- | --- | --- | --- | --- | --- |
| 103 | 100 | – | – | NC(=O)c1sc(Oc2ccc(Br)cc2)c2c1CCc1cnsc1-2 [Example 1, 8-(4-Bromophenoxy)-4,5-dihydrothieno[3,4-g][1,2]benzothiazole-6-carboxamide] | 56 |
| 100 | 100 | – | – | N#Cc1ccc(Oc2sc(C(N)=O)c3c2-c2sncc2CC3)cc1 [Example 2, 8-(4-Cyanophenoxy)-4,5-dihydrothieno[3,4-g][1,2] benzothiazole-6-carboxamide] | 58 |
| 99 | 97 | – | – | NC(=O)c1sc(Oc2ccc(C(=O)N3CCOCC3)cc2)c2c1CCc1cnsc1-2 [Example 3, 8-(4-(Morpholin-4-ylcarbonyl)phenoxy)-4,5-dihydrothieno[3,4-g][1,2]benzothiazole-6-carboxamide] | 60 |
| 98 | 97 | – | – | CN(C)C(=O)c1ccc(Oc2sc(C(N)=O)c3c2-c2sncc2CC3)cc1 [Example 4, 8-(4-(Dimethylcarbamoyl)phenoxy)-4,5-dihydrothieno[3,4-g][1,2] benzothiazole-6-carboxamide] | 61 |
| 100 | 99 | – | – | CCCS(=O)(=O)c1ccc(Oc2sc(C(N)=O)c3c2-c2sncc2CC3)cc1 [Example 5, 8-(4-(Propylsulfonyl)phenoxy)-4,5-dihydrothieno[3,4-g][1,2]benzothiazole-6-carboxamide] | 63 |
| 84 | 89 | – | – | CS(=O)(=O)c1cc(Oc2sc(C(N)=O)c3c2-c2sncc2CC3)ccc1C#N [Example 6, 8-(4-Cyano-3-(methylsulfonyl)phenoxy)-4,5-dihydrothieno[3,4-g][1,2]benzothiazole-6-carboxamide] | 46 |
| 101 | 100 | – | – | Cc1ncccc1Oc1sc(C(N)=O)c2c1-c1sncc1CC2 [Example 7, 8-((2-Methylpyridin-3-yl)oxy)-4,5-dihydrothieno[3,4-g][1,2]benzothiazole-6-carboxamide] | 69 |
| 101 | 96 | – | – | NC(=O)c1sc(Oc2ccc(Cl)nc2)c2c1CCc1cnsc1-2 [Example 10, 8-((6-Chloropyridin-3-yl)oxy)-4,5-dihydrothieno[3,4-g][1,2]benzothiazole-6-carboxamide] | 60 |
| 99 | 96 | – | – | N#Cc1ccc(Oc2sc(C(N)=O)c3c2-c2sncc2CC3)cn1 [Example 11, 8-((6-Cyanopyridin-3-yl)oxy)-4,5-dihydrothieno[3,4-g][1,2]benzothiazole-6-carboxamide] | 71 |
| 97 | 100 | – | – | NC(=O)c1sc(Oc2ccc(C(=O)O)nc2)c2c1CCc1cnsc1-2 [Example 12, 5-((6-Carbamoyl-4,5-dihydrothieno[3,4-g][1,2]benzothiazol-8-yl)oxy)pyridine-2-carboxylic acid] | 65 |
| 97 | 92 | – | – | N=C(N)c1ccc(Oc2sc(C(N)=O)c3c2-c2sncc2CC3)cn1 [Example 14, 8-((6-Carbamimidoylpyridin-3-yl)oxy)-4,5-dihydrothieno[3,4-g][1,2] benzothiazole-6-carboxamide] | 65 |
| 102 | 100 | – | – | CCOC(=O)c1ccc(Oc2sc(C(N)=O)c3c2-c2sncc2CC3)cn1 [Example 15, Ethyl 5-((6-carbamoyl-4,5-dihydrothieno[3,4-g][1,2]benzothiazol-8-yl)oxy)pyridine-2-carboxylate] | 64 |
| 99 | 98 | – | – | NC(=O)c1sc(Oc2ccc(Br)nc2)c2c1CCc1cnsc1-2 [Example 16, 8-((6-Bromopyridin-3-yl)oxy)-4,5-dihydrothieno[3,4-g][1,2]benzothiazole-6-carboxamide] | 59 |
| 101 | 102 | – | – | CNC(=O)c1ccc(Oc2sc(C(N)=O)c3c2-c2sncc2CC3)cn1 [Example 17, 8-((6-(Methylcarbamoyl)pyridin-3-yl)oxy)-4,5-dihydrothieno[3,4-g][1,2]benzothiazole-6-carboxamide] | 66 |
| 93 | 98 | – | – | NC(=O)c1sc(Oc2ccc(C(=O)N3CCOCC3)nc2)c2c1CCc1cnsc1-2 [Example 19, 8-((6-(Morpholin-4-ylcarbonyl)pyridin-3-yl)oxy)-4,5-dihydrothieno[3,4-g][1,2]benzothiazole-6-carboxamide] | 53 |
| 99 | 102 | – | – | CC1(C(=O)Nc2ccc(Oc3sc(C(N)=O)c4c3-c3sncc3CC4)cn2)COC1 [Example 20, 8-((6-(((3-Methyloxetan-3-yl)carbonyl)amino)pyridin-3-yl)oxy)-4,5-dihydrothieno[3,4-g][1,2]benzothiazole-6-carboxamide] | 66 |
| 100 | 106 | – | – | NC(=O)c1sc(Oc2ccc(NC(=O)C3(O)CC3)nc2)c2c1CCc1cnsc1-2 [Example 21, 8-((6-(((1-Hydroxycyclopropyl)carbonyl)amino)pyridin-3-yl)oxy)-4,5-dihydrothieno[3,4-g][1,2]benzothiazole-6-carboxamide] | 70 |
| 104 | 102 | – | – | CC(C)(O)C(=O)Nc1ccc(Oc2sc(C(N)=O)c3c2-c2sncc2CC3)cn1 [Example 22, 8-((6-((2-Hydroxy-2-methylpropanoyl)amino)pyridin-3-yl)oxy)-4,5-dihydrothieno[3,4-g][1,2]benzothiazole-6-carboxamide] | 71 |
| 100 | 104 | – | – | COCCNC(=O)c1ccc(Oc2sc(C(N)=O)c3c2-c2sncc2CC3)c(C)n1 [Example 25, 8-((6-((2-Methoxyethyl)carbamoyl)-2-methylpyridin-3-yl)oxy)-4,5-dihydrothieno[3,4-g][1,2] benzothiazole-6-carboxamide] | 60 |
| 102 | 103 | – | – | Cc1nc(N(C)C(=O)C2CC2)ccc1Oc1sc(C(N)=O)c2c1-c1sncc1CC2 [Example 26, 8-((6-((Cyclopropylcarbonyl)(methyl)amino)-2-methylpyridin-3-yl)oxy)-4,5-dihydrothieno[3,4-g][1,2]benzothiazole-6-carboxamide] | 66 |
| 102 | 102 | – | – | CNc1ccc(Oc2sc(C(N)=O)c3c2-c2sncc2CC3)c(C)n1 [Example 27, 8-((2-Methyl-6-(methylamino)pyridin-3-yl)oxy)-4,5-dihydrothieno[3,4-g][1,2]benzothiazole-6-carboxamide monohydrochloride] | 81 |
| 99 | 101 | – | – | CC(=O)N(C)c1ccc(Oc2sc(C(N)=O)c3c2-c2sncc2CC3)c(C)n1 [Example 28, 8-((6-(Acetyl(methyl)amino)-2-methylpyridin-3-yl)oxy)-4,5-dihydrothieno[3,4-g][1,2]benzothiazole-6-carboxamide] | 63 |
| – | – | 130 | 120 | Oc1ccc(-c2n[nH]cc2-c2ccc3c(c2)OCCO3)c(O)c1 [control compound, 4-(4-(2,3-dihydro-1,4-benzodioxin-6-yl)-1H-pyrazol-3-yl)benzene-1,3-diol, reference compound] | – |
